Tests used:
[1] = target: T1, mouse semaphorin 3A (Sema3A) (Mus musculus, UniProt O08665); experiment: Inhibitory activity for the collapse activity caused by Sema3A (growth cone collapse assay, Test 1); assay type: cell-based; settings: chick embryo dorsal root ganglion, 3 units/mL mouse Sema3A, smaller value = more potent inhibition, read-out: residual ratio (%) of Sema3A activity (collapse assay); for remaining activity at 1 µM: 1 μM test compound
T1 sequence (O08665 21-772): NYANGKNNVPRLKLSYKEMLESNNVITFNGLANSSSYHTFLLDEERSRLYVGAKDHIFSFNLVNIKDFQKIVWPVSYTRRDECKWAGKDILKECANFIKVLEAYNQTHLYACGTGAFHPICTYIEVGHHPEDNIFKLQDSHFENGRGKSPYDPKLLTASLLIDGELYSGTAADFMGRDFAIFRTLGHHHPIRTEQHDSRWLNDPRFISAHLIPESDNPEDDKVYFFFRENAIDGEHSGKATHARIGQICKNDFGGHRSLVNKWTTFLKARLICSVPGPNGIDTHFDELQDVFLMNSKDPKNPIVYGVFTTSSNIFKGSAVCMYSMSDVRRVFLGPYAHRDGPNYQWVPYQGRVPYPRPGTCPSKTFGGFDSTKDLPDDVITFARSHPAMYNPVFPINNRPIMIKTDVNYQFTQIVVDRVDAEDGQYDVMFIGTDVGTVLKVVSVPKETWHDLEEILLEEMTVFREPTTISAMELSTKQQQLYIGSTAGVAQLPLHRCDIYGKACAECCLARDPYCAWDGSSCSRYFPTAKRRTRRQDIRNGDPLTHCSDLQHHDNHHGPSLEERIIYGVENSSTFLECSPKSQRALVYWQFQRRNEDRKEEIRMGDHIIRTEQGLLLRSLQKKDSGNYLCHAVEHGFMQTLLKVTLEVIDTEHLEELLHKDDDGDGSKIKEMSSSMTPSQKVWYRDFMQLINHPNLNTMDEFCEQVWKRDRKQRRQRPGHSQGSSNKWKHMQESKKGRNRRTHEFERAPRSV
Procedure: Inhibitory Activity for the Collapse Activity Caused by Sema3A
96 well-plate (SUMITOMO BAKELITE CO., LTD.) which was beforehand coated with polylysine was further coated with laminin (10 μL laminin, at room temperature, for 1 hour). To each well was added 100 μL of a medium (F12 medium containing 10% fetal bovine serum, 20 ng/mL NGF, 100 unit/mL penicillin, and 100 μg/mL streptomycin). Dorsal root ganglion harvested from 7-8 day-old chick embryo was inoculated thereto, and the culture medium was cultivated under the condition of 5% CO2 and 37° C. for 16-20 hours. And then, each test compound in various concentrations was added to the medium, each test medium was cultivated for 30 minutes, 3 units/mL mouse semaphorin 3A (Sema3A) was added to each medium, and then each test medium was cultivated for more 30 minutes. Then, glutaraldehyde was added to the medium, in which the final concentration of glutaraldehyde was 1%. The medium was left to stand at room temperature for 15 minutes to make the tissue fragment fixed, and the ratio of the retracted growth cone was measured under a microscope.

[2] = tested on: dry eye-model rat (exorbital lacrimal gland excised); experiment: Drug evaluation for corneal disorder in dry eye-model rat (Test 3); assay type: in vivo; settings: eye drop 1 μL per shot, 6 times per day, 4 weeks
Procedure: (Test 3) Drug Evaluation for Corneal Disorder in Dry Eye-Model Rat
A model rat whose exorbital lacrimal gland is excised is generally used as a model for evaluating the drug efficacy for corneal disorder caused by dry eye. As for corneal disorder of the rat, hyaluronic acid (HA) and diquafosol sodium (DQS) which are existing drugs, and the present compound (Example 3) were administered to the rat, and each efficacy thereof was evaluated.
Male SD rat was anesthetized with inhalational isoflurane, and the exorbital lacrimal gland thereof was excised to prepare a dry eye-model rat (the conditions to prepare the dry eye-model rat can be changed as necessary, for example, by combining the excision of exorbital lacrimal gland with the medication of streptozotocin or the like). […]
The site of corneal disorder was stained with a fluorescein (FITC) solution, and the extent of the disorder was evaluated with the score gained from the following method. […]
The statistical significance for the drug effect was evaluated by nonparametric Tukey's multiple comparison test, in which the result of each test group was compared with that of the control (intact) group which was not operated by excising exorbital lacrimal gland.

[3] = tested on: dry eye-model rat associated with the dysfunction of corneal nerves; experiment: Drug evaluation for the dysfunction of corneal nerves in dry eye rat model (Test 4); assay type: in vivo; settings: lacrimal gland excision plus streptozotocin 55 mg/kg i.p.; eye drop 1 μL per shot, 6 times per day, 4 weeks; 0.3% HA, 3% DQS, 0.1% Example 3
Procedure: Drug Evaluation for the Dysfunction of Corneal Nerves in Dry Eye Rat Model
Male SD rat was anesthetized with inhalational isoflurane. The exorbital lacrimal gland thereof was excised, and at the same day, streptozotocin was administered intraperitoneally to the rat (55 mg/kg) to prepare a dry eye-model rat associated with the dysfunction of corneal nerves. Several weeks after the operation, 0.3% HA ophthalmic solution, 3% DQS ophthalmic solution, and 0.1% the ophthalmic solution of the present compound (Example 3) were administered to the rat in an awareness at 1 μL per shot, 6 times per day, for 4 weeks.
The cornea of the rat was softly held by hand. The drug effect for the dysfunction of corneal nerves was evaluated through blink reflex by contacting the cornea with the nylon filament of cochet-bonnet corneal esthesiometer. First, the tip of the nylon filament (length: 60 mm, diameter: 0.12 mm) was made to almost-vertically contact with the center of cornea, and the nylon filament was made to curve a little. […]
The statistical significance for the drug effect was evaluated by confirming that P value is less than 5% in Student's t test between the intact group and the PBS group, and then carrying out Student's t test between the intact group and the present compound group. […]

[4] = tested on: dry eye-model rat (exorbital lacrimal gland excised); experiment: Drug evaluation for corneal disorder in dry eye rat model (Test 5); assay type: in vivo; settings: 0.01% to 1% ophthalmic solutions, 1 μL per shot, twice per day, 4 weeks; ** denotes p<0.01
Procedure: Drug Evaluation for Corneal Disorder in Dry Eye Rat Model
For the corneal disorder in the model rat whose exorbital lacrimal gland is excised, the drug effect was evaluated about hyaluronic acid (HA) which is an existing drug, and the present compound.
Male SD rat was anesthetized with inhalational isoflurane, and the exorbital lacrimal gland thereof was excised to prepare a dry eye-model rat (the conditions to prepare the dry eye-model rat can be changed as necessary, for example, by combining the excision of exorbital lacrimal gland with the medication of streptozotocin or the like). Three weeks after the operation, each vehicle for eye drop (typically phosphate-buffered saline (PBS)), and 0.01%, 0.1%, and 1% the ophthalmic solutions of the present compound (Example 19) were administered to the rat in an awareness at 1 μL per shot, twice per day, for 4 weeks.
The scoring of disorder extent in the site of corneal disorder was evaluated with 4 grades of the evaluation criteria of 0-3 according to Test 3.
The statistical significance for the drug effect was evaluated by nonparametric Tukey's multiple comparison test, in which the result of each test group was compared with that of the vehicle-administration group (PBS) in which the rat's exorbital lacrimal gland is excised.

Row | remaining activity at 1 µM [1] | remaining activity at 3 µM ([1]; 3 μM test compound) | Compound | therapeutic effect for corneal disorder caused by dry eye (fluorescein staining score 0-3) ([2]; 0.3% HA, 3% DQS, Example 3 ophthalmic solution, compared with intact group) | improvement of corneal disorder compared with the vehicle-administration group (PBS) ([2]; ** denotes p<0.01) | therapeutic effect for the dysfunction of corneal nerves (corneal perception, blink reflex, Cochet-Bonnet esthesiometer) [3] | improvement for corneal disorder (fluorescein staining score 0-3) vs vehicle-administration group (PBS) [4]
1 | 4% | – | Cn1cc(-c2coc3cc(O)c(O)c(C(=O)OCc4cn(CC(=O)N[C@@H](CCC(=O)O)C(=O)O)nn4)c3c2=O)c(=O)c2cc(O)c(O)cc21 [Example 3, N-({4-[({[3-(6,7-Dihydroxy-1-methyl-4-oxo-1,4-dihydroquinolin-3-yl)-6,7-dihydroxy-4-oxo-4H-chromen-5-yl]carbonyl}oxy)methyl]-1H-1,2,3-triazol-1-yl}acetyl)-L-glutamic acid] | potent therapeutic effect | significant improvement | marked therapeutic effect | –
2 | 4.2% | 0% | Cn1cc(-c2coc3cc(O)c(O)c(C(=O)OCC(=O)N[C@@H](CCC(=O)O)C(=O)O)c3c2=O)c(=O)c2cc(O)c(O)cc21 [Example 19, N-[({[3-(6,7-Dihydroxy-1-methyl-4-oxo-1,4-dihydroquinolin-3-yl)-6,7-dihydroxy-4-oxo-4H-chromen-5-yl]carbonyl}oxy)acetyl]-L-glutamic acid] | – | – | – | marked improvement

Source: US11440905B2, “Biheterocyclic compound” (SUMITOMO PHARMA CO., LTD., priority 2016, dated 2022)
